Earlier results on 3 compounds are cited in US4794170A (priority 1984, dated 1988).

One data set concerns hepatocytes. The following applies: mouse.
In the next data set the test system is virus B. To be noted: chronical hepatitis induced by virus B.

With “ara-A-glut-AF: ara-A glutarate bonded to the asialofetuine (AF) through its hydroxysuccinimidic ester”, the “hepatic targeting of ara-A” value with hepatocytes is “pharmacologically active in producing in the mouse a hepatic targeting of ara-A”. As for `Nc1ncnc2c1ncn2[C@@H]1O[C@H](COP(=O)(O)O)[C@@H](O)[C@@H]1O` [ara-AMP, adenine-9-beta-D-arabinofuranoside 5'monophosphate], the virus replication entry in the data set with virus B is “inhibit the virus replication”. As for `Nc1ncnc2c1ncn2[C@@H]1O[C@H](CO)[C@@H](O)[C@@H]1O` [ara-A, adenine-9-beta-D-arabinoside], the virus replication result in the data set on virus B was “inhibit the virus replication”.
